Data on 3 compounds can be found in patent US7541044B2, “Administration of 5T4 antigen and immune response of cells expressing 5T4 and CEA antigens” (priority 2004, dated 2009).

Data set [1] can be described thus: Adverse events, NCI-common toxicity criteria (BC1). Format: in vivo, human. The following applies: attributed to oral cyclophosphamide. The protocol:
Further assessment was performed in out-patients on day 7. Biopsy of the injected tumour nodules was performed under local anaesthetic. The biopsies were snap-frozen in liquid nitrogen, then sectioned and fixed for histological assessment. Treatment with cyclophosphamide 100 mg/m^2 p.o. was commenced for 14 out of every 28 days. Patients were reviewed weekly for the first 8 weeks and end of study assessment, including tumour size and appropriate re-staging CT scans performed at 12 weeks. Response was assessed according to WHO criteria. Patients with stable or responding disease continued with cyclophosphamide at the discretion of the investigator. Toxicity was graded according to NCI-common toxicity criteria (version 2).
The main toxicity observed in the study was attributed to oral cyclophosphamide with the most frequent non-haematological events described as nausea (9 patients), alopecia (6 patients), headache (5 patients), anorexia (4 patients) and fatigue (4 patients). All of these events were grade I or II by NCI-CTC with the exception of one patient with grade III fatigue. Two patients had clinically significant haematological toxicity with grade III leucopenia and grade II neutropenia. No patients were admitted with neutropenic fever. […] During the study 3 patients with breast cancer experienced serious adverse events (patient 103 hypotension, dysarthria and left sided weakness, patient 104 trismus and tongue oedema and patient 108 deep vein thrombosis, hypotension and dyspnoea). None of the serious adverse events were considered related to MetXia-P450.

Data set [2] deals with B16 melanoma lung metastases. The following applies: tk gene then ganciclovir; immunocompetent but not immunodeficient mice; cited from earlier work.
In data set [3] the test system is colon carcinoma derived metastatic rat tumour line. The following applies: SC tumour line transfected with cytosine deaminase gene, then 5-fluorocytosine; cited from earlier work.

Molecules are shown by their SMILES.

Take `O=P1(N(CCCl)CCCl)NCCCO1` (stereo not drawn) [cyclophosphamide]: in data set [1], the “clinically significant haematological toxicity (grade III leucopenia and grade II neutropenia)” value is reported as “Two”; the fatigue is given as 4 patients; the “grade III fatigue” value is listed as “one”. In data set [1] (grade I or II), this compound returned an alopecia of 6 patients, an anorexia of 4 patients, a headache of 5 patients and a nausea of 9 patients.
For `Nc1nc(O)c2ncn(COC(CO)CO)c2n1` [ganciclovir], the “B16 melanoma lung metastases” value in data set [2] is “marked reduction”.
Regarding `Nc1nc(=O)[nH]cc1F` [5-fluorocytosine], the “regression in the volume of established liver tumours” value in data set [3] is listed as 70%.
